Results from BigSolDB 2.1.

CC(=O)c1cccc(O)c1
solubility (mole fraction)
Details | in benzene | in ethanol | in ethyl acetate | in isobutanol | in isopropanol | in methanol | in methyl acetate | in n-butanol | in n-propanol | in water
289.15 K | 0.00506 | 0.166 | 0.158 | 0.119 | 0.176 | 0.156 | 0.16 | 0.154 | 0.152 | 0.00073
292.15 K | 0.00532 | 0.175 | 0.168 | 0.126 | 0.184 | 0.169 | 0.171 | 0.163 | 0.161 | 0.00078
295.15 K | 0.00707 | 0.19 | 0.18 | 0.146 | 0.201 | 0.185 | 0.182 | 0.172 | 0.18 | 0.001
298.15 K | 0.00848 | 0.209 | 0.191 | 0.166 | 0.22 | 0.203 | 0.197 | 0.189 | 0.199 | 0.00106
301.15 K | 0.0122 | 0.225 | 0.199 | 0.184 | 0.236 | 0.22 | 0.209 | 0.203 | 0.211 | 0.00113
304.15 K | 0.015 | 0.245 | 0.214 | 0.205 | 0.256 | 0.239 | 0.229 | 0.221 | 0.23 | 0.00154
307.15 K | 0.0198 | 0.263 | 0.235 | 0.235 | 0.275 | 0.255 | 0.253 | 0.242 | 0.252 | 0.00172
310.15 K | 0.0238 | 0.287 | 0.254 | 0.265 | 0.3 | 0.279 | 0.274 | 0.261 | 0.274 | 0.00199
313.15 K | 0.0281 | 0.308 | 0.277 | 0.293 | 0.324 | 0.302 | 0.298 | 0.284 | 0.299 | 0.00245
316.15 K | 0.0308 | 0.335 | 0.304 | 0.32 | 0.349 | 0.328 | 0.324 | 0.309 | 0.329 | 0.00291
319.15 K | 0.037 | 0.361 | 0.333 | 0.348 | 0.372 | 0.349 | 0.346 | 0.335 | 0.36 | 0.00362
322.15 K | 0.0453 | 0.391 | 0.364 | 0.38 | 0.401 | 0.383 | 0.376 | 0.368 | 0.395 | 0.00456
325.15 K | 0.0614 | 0.42 | 0.384 | 0.421 | 0.431 | 0.409 | 0.407 | 0.402 | 0.425 | 0.00562
